Values quoted from earlier work, collected in patent US10238717B2 (Latitude Pharmaceuticals, Inc., priority 2014, dated 2019).
Where two headings read alike, the source gives them in different places.

Compound | Concentration of sugar in water at saturation (25° C.) | Concentration of sugar in water at saturation (20° C.) | further results
OC[C@H]1O[C@@H](O[C@H]2[C@H](O)[C@@H](O)C(O)O[C@@H]2CO)[C@H](O)[C@@H](O)[C@H]1O (some centres unmarked) [lactose] | about 21.6 % w/v |  | 
OC[C@@H](O)[C@@H](O)[C@H](O)[C@H](O)CO [mannitol] |  |  | Concentration of sugar in water at saturation (temperature not given): about 25 % w/v
OC[C@@H](O)[C@@H](O)[C@H](O)[C@@H](O)CO [sorbitol] |  | about 22 % w/v | 
OC[C@H]1O[C@@](CO)(O[C@H]2O[C@H](CO)[C@@H](O)[C@H](O)[C@H]2O)[C@@H](O)[C@@H]1O [sucrose] | about 200 % w/v |  | 
OC[C@H]1O[C@H](O[C@H]2O[C@H](CO)[C@@H](O)[C@H](O)[C@H]2O)[C@H](O)[C@@H](O)[C@@H]1O [trehalose] |  | about 68.9 % w/v | 
